# Experimental data from publication PMC7441537 (Journal of medicinal chemistry, 2019).
# Columns and labels:
# HIV-1 L100I = format: cell-based; details: MT-4 cells; CC50/EC50
# [1] = system: NNRTI-resistant strain K103N+Y181C (RES056); details: MT-4 cells
# HIV-1 F227L+V106A = format: cell-based; details: MT-4 cells; CC50/EC50
# HIV-1 Y181C = format: cell-based; details: MT-4 cells; CC50/EC50
# HIV-1 K103N = format: cell-based; details: MT-4 cells; CC50/EC50
# HIV-1 E138K = format: cell-based; details: MT-4 cells; CC50/EC50
# HIV-1 Y188L = format: cell-based; details: MT-4 cells; CC50/EC50
# [2] = system: HIV-1 strains carrying single NNRTI-resistant mutations; format: cell-based; details: EC50 mutant/EC50 WT
# Kunming mice = test: Acute; format: in vivo; details: 800 mg/kg, 2 weeks, vs control group
# WT HIV-1 (IIIB) = details: MT-4 cells
# in vitro = details: human
# mice = test: Subacute toxicity with HE staining of organs; details: 50 mg/kg, heart, liver, spleen, lungs, kidneys
# RES056 (K103N+Y181C) = details: read-out: EC50 RES056 (previously reported); cited from earlier work
# [3] = Aqueous solubility measured by HPLC; format: physicochemical; details: aqueous solution, pH 2
# [4] = cited from earlier work
smiles,measurement,setting,value
"Cc1cc(C#N)cc(C)c1Oc1nc(NC2CCN(Cc3ccc(C(N)=O)cc3)CC2)nc2c1COC2 [13c2, 4-((4-((4-(4-Cyano-2,6-dimethylphenoxy)-5,7-dihydrofuro-[3,4-d]pyrimidin-2-yl)amino)piperidin-1-yl)methyl)benzamide]",SI L100I,HIV-1 L100I,> 104167
same,SI RES056 (CC50/EC50),[1],>6039
same,SI F227L+V106A,HIV-1 F227L+V106A,> 13158
same,SI Y181C,HIV-1 Y181C,> 56818
same,SI K103N,HIV-1 K103N,> 277778
same,SI E138K,HIV-1 E138K,> 35714
same,SI Y188L,HIV-1 Y188L,> 29762
same,resistance FC values range for single mutant strains,[2],0.6–5.3
same,"behavior, acute toxicity",Kunming mice,no significant behavior abnormalities
same,SI IIIB (CC50/EC50),WT HIV-1 (IIIB),>156250
"Cc1cc(C#N)cc(C)c1Oc1nc(NC2CCN(Cc3cccc(C(N)=O)c3)CC2)nc2c1SCCC2 [13f5, 3-((4-((4-(4-Cyano-2,6-dimethylphenoxy)-7,8-dihydro-6H-thiopyrano[3,2-d]pyrimidin-2-yl)amino)piperidin-1-yl)methyl)benzamide]",CC50,in vitro,> 4.59 µM
"Cc1cc(C#N)cc(C)c1Oc1nc(Nc2ccc(C#N)cc2)nc(N)c1Br [ETV, etravirine]",organ toxicity by HE staining,mice,alveolar interstitial thickening and alveolar hemorrhage (the blue arrow) in the lung and proximal convoluted tubule edema (the red circle) in the kidney
same,EC50,RES056 (K103N+Y181C),0.017 µM
same,solubility,[3],127 µg/mL
same,aqueous solubility (previously reported),[4],less than 1 μg/mL
Cc1cc(C#N)cc(C)c1Oc1nc(NC2CCN(Cc3ccc(S(N)(=O)=O)cc3)CC2)nc2ccsc12 [compound 3],EC50,RES056 (K103N+Y181C),0.0306 µM
same,aqueous solubility (previously reported),[4],less than 1 μg/mL
